In patent publication US8114885B2, “Chemical compounds” (GlaxoSmithKline LLC, priority 2000, dated 2012):
pIC50: −log10 of the molar value. Counter-ions that a name gives are not always drawn.

system: HUVEC; assay: Human Umbilical Vein Endothelial Cell (HUVEC) proliferation assay (BrdU incorporation); format: cell-based; conditions: VEGF-stimulated HUVEC, 72 hrs, read-out: Inhibition of HUVEC proliferation IC50
Experimental: Human Umbilical Vein Endothelial Cell (HUVEC) Proliferation Assay (BrdU Incorporation) Materials
HUVEC cells and EGM-MV (Endothelial cell growth medium—microvascular) were purchased from Clonetics (San Diego, Calif.). VEGF and bFGF were purchased from R&D Systems (Minneapolis, Minn.). Anti-BrdU antibody was obtained from Chemicon International (Temecula, Calif.).
HUVECs were routinely maintained in EGM-MV medium and were used within passage 7. HUVECs were plated at a density of 2500 cells/well in M199 medium containing 5% FBS (Hyclone) in type I collagen coated plate (Becton Dickinson). The plate was incubated at 37° C. overnight. The medium was removed by aspiration, and test compounds were added to each well in a volume of 0.1 ml/well in serum-free M199 medium. Compound concentrations ranged from 1.5 nM to 30 micromolar. The plate was incubated for 30 min at 37° C. Another 0.1 ml of serum-free M199 medium containing BSA and VEGF (or bFGF) was added to give a final concentration of 0.1% BSA and 10 ng/ml VEGF (0.3 ng/ml bFGF). The plate was incubated at 37° C. for 72 hrs. BrdU was added to each well after the first 48 hrs to give a concentration of 10 micromolar. The calorimetric ELISA assay was performed according to manufacturer's (Roche Molecular Sciences) instructions, with detection by absorbance reading at 450 nm. Results were plotted as concentration of test compound vs. absorbance to give an IC50 value for inhibition of BrdU incorporation.

First: C#CCN(c1ccc2c(C)n[nH]c2c1)c1ccnc(Nc2cccc(CS(C)(=O)=O)c2)n1 [Example 50]
Second: Cc1n[nH]c2cc(N(C)c3ccnc(Nc4cccc(CS(C)(=O)=O)c4)n3)ccc12 [Example 23, N^4-methyl-N^4-(3-methyl-1H-indazol-6-yl)-N^2-{3-[(methylsulfonyl)methyl]phenyl}-2,4-pyrimidinediamine]
The pIC50 of the first is lower: 6.30 to 6.70 for the first, 6.70 to 9.00 for the second.

Compared with `Cc1ccc(Nc2ncnc(N(C)c3ccc4c(C)n(C)nc4c3)n2)cc1S(N)(=O)=O` [Example 79, 5-({4-[(2,3-dimethyl-2H-indazol-6-yl)(methyl)amino]-1,3,5-triazin-2-yl}amino)-2-methylbenzenesulfonamide], `Cc1ccc(Nc2nccc(N(C)c3ccc4c(C)n(C)nc4c3)n2)cc1S(N)(=O)=O` [Example 69, 5-({4-[(2,3-dimethyl-2H-indazol-6-yl)(methyl)amino]pyrimidin-2-yl}amino)-2-methylbenzenesulfonamide] is higher in pIC50: 6.30 to 6.70 for the first, 6.70 to 9.00 for the second.

First: Cc1n[nH]c2cc(N(C)c3ccnc(Nc4ccc(S(N)(=O)=O)c(Cl)c4)n3)ccc12 [Example 61, 2-chloro-4-({4-[methyl(3-methyl-1H-indazol-6-yl)amino]-2-pyrimidinyl}amino)benzenesulfonamide]
Second: Cc1n[nH]c2cc(N(C)c3ccnc(Nc4ccc(Cl)c(S(N)(=O)=O)c4)n3)ccc12 [Example 60, 2-chloro-5-({4-[methyl(3-methyl-1H-indazol-6-yl)amino]-2-pyrimidinyl}amino)benzenesulfonamide]
The pIC50 of the first is lower: 6.30 to 6.70 for the first, 6.70 to 9.00 for the second. The second is the more potent here.

`Cc1ccc(Nc2nccc(N(C)c3ccc4c(C)n[nH]c4c3)n2)cc1S(N)(=O)=O` [Example 64, 2-methyl-5-({4-[methyl(3-methyl-1H-indazol-6-yl)amino]-2-pyrimidinyl}amino)benzenesulfonamide] and `Cc1ccc(S(N)(=O)=O)cc1Nc1nccc(N(C)c2ccc3c(C)n[nH]c3c2)n1` [Example 65, 4-methyl-3-({4-[methyl(3-methyl-1H-indazol-6-yl)amino]-2-pyrimidinyl}amino)benzenesulfonamide] fall in the same range of pIC50: 6.70 to 9.00 for the first, 6.70 to 9.00 for the second.

`CCS(=O)(=O)c1ccc(OC)c(Nc2nccc(N(C)c3ccc4c(C)n[nH]c4c3)n2)c1` [Example 22, N^2-[5-(ethylsulfonyl)-2-methoxyphenyl]-N^4-methyl-N^4-(3-methyl-1H-indazol-6-yl)-2,4-pyrimidinediamine] and `COc1ccc(S(N)(=O)=O)cc1Nc1nccc(N(C)c2ccc3c(C)n[nH]c3c2)n1` [Example 54, 4-methoxy-3-({4-[methyl(3-methyl-1H-indazol-6-yl)amino]-2-pyrimidinyl}amino)benzenesulfonamide] fall in the same range of pIC50: 6.70 to 9.00 for the first, 6.70 to 9.00 for the second.

`Cc1c2ccc(N(C)c3ccnc(Nc4cccc(S(N)(=O)=O)c4)n3)cc2nn1C` [Example 70, 3-({4-[(2,3-dimethyl-2H-indazol-6-yl)(methyl)amino]pyrimidin-2-yl}amino)benzenesulfonamide] and `CN(c1ccc2c(CO)n(C)nc2c1)c1ccnc(Nc2cccc(S(N)(=O)=O)c2)n1` [Example 73, 3-({4-[[3-(hydroxymethyl)-2-methyl-2H-indazol-6-yl](methyl)amino]pyrimidin-2-yl}amino)benzenesulfonamide] fall in the same range of pIC50: 6.70 to 9.00 for the first, 6.70 to 9.00 for the second.

`CCc1n[nH]c2cc(N(C)c3nc(Nc4cccc(CS(C)(=O)=O)c4)ncc3F)ccc12` [Example 8, N^4-(3-ethyl-1H-indazol-6-yl)-5-fluoro-N^4-methyl-N^2-{3-[(methylsulfonyl)methyl]phenyl}-2,4-pyrimidinediamine] and `CNS(=O)(=O)Cc1ccc(Nc2ncc(F)c(N(C)c3ccc4c(C)n[nH]c4c3)n2)cc1` [Example 11, [4-({5-fluoro-4-[methyl(3-methyl-1H-indazol-6-yl)amino]-2-pyrimidinyl}amino)phenyl]-N-methylmethanesulfonamide] fall in the same range of pIC50: 6.30 to 6.70 for the first, 6.30 to 6.70 for the second.

`CCN(c1ccc2c(C)n[nH]c2c1)c1ccnc(Nc2cccc(NC(C)=O)c2)n1` [Example 32, N-[3-({4-[ethyl(3-methyl-1H-indazol-6-yl)amino]-2-pyrimidinyl}amino)phenyl]acetamide] and `Cc1n[nH]c2cc(N(C)c3ccnc(Nc4ccc(C(N)=O)cc4)n3)ccc12` [Example 48, 4-({4-[methyl(3-methyl-1H-indazol-6-yl)amino]-2-pyrimidinyl}amino)benzamide] fall in the same range of pIC50: 6.70 to 9.00 for the first, 6.70 to 9.00 for the second.

First: CN(c1ccc2cn[nH]c2c1)c1ccnc(Nc2cccc(CS(C)(=O)=O)c2)n1 [Example 37, N^4-(1H-indazol-6-yl)-N^4-methyl-N^2-{3-[(methylsulfonyl)methyl]phenyl}-2,4-pyrimidinediamine]
Second: Cc1n[nH]c2cc(N(C)c3ccnc(Nc4cccc(S(=O)(=O)NC5CC5)c4)n3)ccc12 [Example 25, N-cyclopropyl-3-({4-[methyl(3-methyl-1H-indazol-6-yl)amino]-2-pyrimidinyl}amino)benzenesulfonamide]
The pIC50 of the first is lower: 6.30 to 6.70 for the first, 6.70 to 9.00 for the second.

First: CCS(=O)(=O)c1ccc(OC)c(Nc2nccc(N(C)c3ccc4c(C)n(C)nc4c3)n2)c1 [Example 40, N^4-(2,3-dimethyl-2H-indazol-6-yl)-N^2-[5-(ethylsulfonyl)-2-methoxyphenyl]-N^4-methyl-2,4-pyrimidinediamine]
Second: CCS(=O)(=O)c1ccc(OC)c(Nc2nccc(N(c3ccc4c(C)n[nH]c4c3)C(C)C)n2)c1 [Example 36, N^2-[5-(ethylsulfonyl)-2-methoxyphenyl]-N^4-isopropyl-N^4-(3-methyl-1H-indazol-6-yl)-2,4-pyrimidinediamine]
The pIC50 of the first is higher: 6.70 to 9.00 for the first, less than 6.00 for the second. The first is the more potent here.

First: CCN(c1ccc2c(C)n[nH]c2c1)c1nc(Nc2cc(S(C)(=O)=O)ccc2OC)ncc1F [Example 10, N^4-ethyl-5-fluoro-N^2-[2-methoxy-5-(methylsulfonyl)phenyl]-N^4-(3-methyl-1H-indazol-6-yl)-2,4-pyrimidinediamine]
Second: CCS(=O)(=O)c1ccc(OC)c(Nc2ncnc(N(C)c3ccc4c(C)n[nH]c4c3)n2)c1 [Example 17, N^2-[5-(ethylsulfonyl)-2-methoxyphenyl]-N^4-methyl-N^4-(3-methyl-1H-indazol-6-yl)-1,3,5-triazine-2,4-diamine hydrochloride]
The pIC50 of the first is lower: less than 6.00 for the first, 6.00 to 6.30 for the second. The second is the more potent here.

First: CCS(=O)(=O)c1ccc(OC)c(Nc2nccc(Nc3ccc4c(C)n[nH]c4c3)n2)c1 [Example 55, N^2-[5-(ethylsulfonyl)-2-methoxyphenyl]-N^4-(3-methyl-1H-indazol-6-yl)-2,4-pyrimidinediamine]
Second: COc1ccc(S(N)(=O)=O)cc1Nc1nccc(Nc2ccc3c(C)n[nH]c3c2)n1 [Example 34, 4-methoxy-3-({4-[(3-methyl-1H-indazol-6-yl)amino]-2-pyrimidinyl}amino)benzenesulfonamide]
The pIC50 of the first is higher: 6.70 to 9.00 for the first, 6.30 to 6.70 for the second. The first is the more potent here.

Compared with `Cc1n[nH]c2cc(N(C)c3ccnc(Nc4ccc(S(N)(=O)=O)cc4)n3)ccc12` [Example 52, 4-({4-[methyl(3-methyl-1H-indazol-6-yl)amino]-2-pyrimidinyl}amino)benzenesulfonamide], `Cc1n[nH]c2cc(N(C)c3nc(Nc4ccc(S(N)(=O)=O)cc4)ncc3F)ccc12` [Example 9, 4-({5-fluoro-4-[methyl(3-methyl-1H-indazol-6-yl)amino]-2-pyrimidinyl}amino)benzenesulfonamide] is lower in pIC50: 6.70 to 9.00 for the first, 6.30 to 6.70 for the second.

`Cc1ccc(Nc2ncc(F)c(N(C)c3ccc4c(C)n[nH]c4c3)n2)cc1NS(C)(=O)=O` [Example 6, N-[5-({5-fluoro-4-[methyl(3-methyl-1H-indazol-6-yl)amino]-2-pyrimidinyl}amino)-2-methylphenyl]methanesulfonamide] and `Cc1n[nH]c2cc(N(C)c3ncnc(Nc4cccc(S(C)(=O)=O)c4)n3)ccc12` [Example 19, N^2-methyl-N^2-(3-methyl-1H-indazol-6-yl)-N^4-[3-(methylsulfonyl)phenyl]-1,3,5-triazine-2,4-diamine] fall in the same range of pIC50: 6.30 to 6.70 for the first, 6.30 to 6.70 for the second.

First: COc1ccc(S(=O)(=O)C(C)C)cc1Nc1nccc(N(C)c2ccc3c(C)n[nH]c3c2)n1 [Example 35, N^2-[5-(isopropylsulfonyl)-2-methoxyphenyl]-N^4-methyl-N^4-(3-methyl-1H-indazol-6-yl)-2,4-pyrimidinediamine]
Second: CCS(=O)(=O)c1ccc(OC)c(Nc2nccc(N(CC#N)c3ccc4c(C)n[nH]c4c3)n2)c1 [Example 45, [{2-[5-(ethylsulfonyl)-2-methoxyanilino]-4-pyrimidinyl}(3-methyl-1H-indazol-6-yl)amino]acetonitrile]
The pIC50 of the first is higher: 6.70 to 9.00 for the first, 6.00 to 6.30 for the second. The first is the more potent here.

Compared with `COc1ccc(S(=O)(=O)Nc2cccc(Nc3nccc(N(C)c4ccc5c(C)n[nH]c5c4)n3)c2)cc1` [Example 42, 4-methoxy-N-[3-({4-[methyl(3-methyl-1H-indazol-6-yl)amino]-2-pyrimidinyl}amino)phenyl]benzenesulfonamide], `CN(c1ccc2c(c1)nc(Cc1ccccc1)n2C)c1ccnc(Nc2cccc(S(N)(=O)=O)c2)n1` [Example 75, 3-({4-[(2-benzyl-1-methyl-1H-benzimidazol-5-yl)(methyl)amino]pyrimidin-2-yl}amino)benzenesulfonamide] is higher in pIC50: 6.30 to 6.70 for the first, 6.70 to 9.00 for the second. The second is the more potent here.

`Cc1c2ccc(N(C)c3ncnc(Nc4cccc(S(N)(=O)=O)c4)n3)cc2nn1C` [Example 78, 3-({4-[(2,3-dimethyl-2H-indazol-6-yl)(methyl)amino]-1,3,5-triazin-2-yl}amino)benzenesulfonamide] showed a pIC50 of 6.70 to 9.00.
